Results published in patent US8334315B2, “Substituted aromatic carboxamide and urea derivatives as vanilloid receptor ligands” (Gruenenthal GmbH, priority 2009, dated 2012).

How the values were obtained:
[1] = biological target: T1, hVR1 (Homo sapiens, UniProt Q8NER1); experiment: Functional test on VR1, FLIPR Ca2+ influx in transfected CHO K1 cells, capsaicin; format: cell-based, human being; parameters: key to Ki (human being) [nM] Cap: agonist / partial agonist / no effect: AG=agonist; pAG=partial agonist; NE=no effect; conditions: for Ki: includes values given in brackets after pAG, read-out: Ki (human being) [nM] Cap
T1 construct: expressed in transfected cells; host or cells: CHO K1 cells (ECACC), stably transfected
T1 sequence (Q8NER1 whole entry): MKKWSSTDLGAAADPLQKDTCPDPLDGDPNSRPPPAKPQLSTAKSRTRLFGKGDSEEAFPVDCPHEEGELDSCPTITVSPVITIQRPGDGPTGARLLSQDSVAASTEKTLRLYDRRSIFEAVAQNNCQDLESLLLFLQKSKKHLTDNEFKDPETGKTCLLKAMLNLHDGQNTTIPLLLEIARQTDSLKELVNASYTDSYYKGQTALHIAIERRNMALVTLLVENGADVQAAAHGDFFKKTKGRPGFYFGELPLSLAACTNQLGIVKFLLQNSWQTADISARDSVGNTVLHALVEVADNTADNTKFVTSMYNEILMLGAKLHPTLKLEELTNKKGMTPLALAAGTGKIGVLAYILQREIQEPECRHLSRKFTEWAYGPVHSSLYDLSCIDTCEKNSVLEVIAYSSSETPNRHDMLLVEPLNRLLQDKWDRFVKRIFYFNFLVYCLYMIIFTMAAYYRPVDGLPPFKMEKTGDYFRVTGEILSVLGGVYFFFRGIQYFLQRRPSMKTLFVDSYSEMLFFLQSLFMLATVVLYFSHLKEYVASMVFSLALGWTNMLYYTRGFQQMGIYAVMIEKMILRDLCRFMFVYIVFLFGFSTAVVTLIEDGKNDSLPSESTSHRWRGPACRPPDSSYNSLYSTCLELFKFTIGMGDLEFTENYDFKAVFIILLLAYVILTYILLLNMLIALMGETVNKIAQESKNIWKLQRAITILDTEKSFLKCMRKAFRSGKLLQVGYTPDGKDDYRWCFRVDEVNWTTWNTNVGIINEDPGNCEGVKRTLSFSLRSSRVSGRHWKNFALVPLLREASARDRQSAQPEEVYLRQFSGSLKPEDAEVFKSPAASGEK

[2] = biological target: T1, hVR1; experiment: Functional test on hVR1 after pH stimulus; format: cell-based, human being; parameters: key to IC50 (human being) hVR1, pH: agonist / partial agonist / no effect: AG=agonist; pAG=partial agonist; NE=no effect; conditions: for inhibition at 10 µM: read-out: IC50 (human being) hVR1, pH: inhibition (as a percentage)
[3] = biological target: T1, hVR1; experiment: Functional test on human VR1, NADA (N-arachidonoyl dopamine) stimulus; format: cell-based, human being; parameters: key to Ki (human being) NADA: agonist / partial agonist / no effect: AG=agonist; pAG=partial agonist; NE=no effect; conditions: for Ki: includes values given in brackets after pAG, read-out: Ki (human being) [nM] NADA
Source text: II. Functional Tests Carried Out on the Vanilloid Receptor (VR1)
The agonistic or antagonistic effect of the substances to be tested on the vanilloid receptor 1 (VR1) can also be determined using the following assay. In this assay, the influx of Ca^2+ through the channel is quantified with the aid of a Ca^2+-sensitive dye (type Fluo-4, Molecular Probes Europe BV, Leiden, the Netherlands) in a fluorescent imaging plate reader (FLIPR, Molecular Devices, Sunnyvale, USA).
Chinese hamster ovary cells (CHO K1 cells, European Collection of Cell Cultures (ECACC) United Kingdom) are stably transfected with the VR1 gene. For functional testing, these cells are plated out on poly-D-lysine-coated black 96-well plates having a clear base (BD Biosciences, Heidelberg, Germany) at a density of 25,000 cells/well. The cells are incubated overnight at 37° C. and 5% CO2 in a culture medium (Ham's F12 nutrient mixture, 10% by volume of FCS (foetal calf serum), 18 μg/ml of L-proline). The next day the cells are incubated with Fluo-4 (Fluo-4 2 μM, 0.01% by volume of Pluronic F127, Molecular Probes in HBSS (Hank's buffered saline solution), Gibco Invitrogen GmbH, Karlsruhe, Germany) for 30 minutes at 37° C. Subsequently, the plates are washed three times with HBSS buffer and after further incubation for 15 minutes at RT used for Ca^2+ measurement in a FLIPR assay. The Ca^2+-dependent fluorescence is measured before and after the addition of the substances to be tested (λex wavelength=488 nm, λem=540 nm). Quantification is carried out by measuring the highest fluorescence intensity (FC, fluorescence counts) over time.
The FLIPR protocol consists of 2 substance additions. First the compounds to be tested (10 μM) are pipetted onto the cells and the Ca^2+ influx is compared with the control (capsaicin 10 μM) (% activation based on the Ca^2+ signal after the addition of 10 μM of capsaicin). […]
Desensitising agonists and antagonists led to suppression of the Ca^2+ influx. The % inhibition is calculated compared to the maximum achievable inhibition with 10 μM of capsaicin.
Starting from the percentage displacement caused by different concentrations of the compounds to be tested of general formula I, IC50 inhibitory concentrations which cause a 50-per cent displacement of capsaicin were calculated. Ki values for the test substances were obtained by conversion by means of the Cheng-Prusoff equation (Cheng, Prusoff; Biochem. Pharmacol. 22, 3099-3108, 1973).
NADA=N-arachidonoyl dopamine

[4] = biological target: T1, hVR1; experiment: Functional test on human VR1, 45° C. stimulus; format: cell-based, human being; parameters: key to IC50 (human being), 45° C.: agonist / partial agonist / no effect: AG=agonist; pAG=partial agonist; NE=no effect; conditions: for IC50: read-out: IC50 (human being) [nM], 45° C.
[5] = biological target: T2, rat-species vanilloid receptor 1 (VR1/TRPV1) (Rattus norvegicus, UniProt O35433); experiment: Functional testing on the vanilloid receptor 1, FLIPR Ca2+ influx in rat DRG cells, capsaicin; format: cell-based; conditions: capsaicin (Cap); includes values given in brackets after pAG
T2 construct: endogenous in cells; host or cells: primary cells dissociated from rat dorsal root ganglia (DRG), cultured 2-3 days with NGF
T2 sequence (O35433 whole entry): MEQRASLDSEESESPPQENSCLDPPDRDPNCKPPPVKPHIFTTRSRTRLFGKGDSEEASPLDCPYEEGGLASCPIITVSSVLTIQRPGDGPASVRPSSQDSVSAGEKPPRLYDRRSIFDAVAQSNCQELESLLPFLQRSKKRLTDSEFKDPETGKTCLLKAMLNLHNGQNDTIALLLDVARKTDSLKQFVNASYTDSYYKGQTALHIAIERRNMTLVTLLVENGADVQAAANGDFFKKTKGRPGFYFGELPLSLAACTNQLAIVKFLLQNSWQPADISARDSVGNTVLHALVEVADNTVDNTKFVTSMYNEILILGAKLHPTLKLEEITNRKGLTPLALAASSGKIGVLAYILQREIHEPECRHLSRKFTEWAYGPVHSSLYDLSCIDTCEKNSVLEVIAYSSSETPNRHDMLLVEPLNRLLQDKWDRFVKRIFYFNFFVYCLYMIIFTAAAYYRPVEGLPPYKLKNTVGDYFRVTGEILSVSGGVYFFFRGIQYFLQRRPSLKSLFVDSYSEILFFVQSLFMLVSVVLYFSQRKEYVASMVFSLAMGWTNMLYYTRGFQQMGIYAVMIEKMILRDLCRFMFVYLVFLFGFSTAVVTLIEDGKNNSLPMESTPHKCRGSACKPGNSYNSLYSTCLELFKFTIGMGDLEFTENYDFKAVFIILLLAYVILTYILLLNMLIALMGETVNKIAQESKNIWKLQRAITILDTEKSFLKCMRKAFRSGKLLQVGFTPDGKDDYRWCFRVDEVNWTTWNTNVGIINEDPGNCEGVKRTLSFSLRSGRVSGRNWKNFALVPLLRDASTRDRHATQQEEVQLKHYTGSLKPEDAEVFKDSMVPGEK
Source text: I. Functional Testing Carried Out on the Vanilloid Receptor 1 (VRI/TRPV1 Receptor)
The agonistic or antagonistic effect of the substances to be tested on the rat-species vanilloid receptor 1 (VR1/TRPV1) can be determined using the following assay. In this assay, the influx of Ca^2+ through the receptor channel is quantified with the aid of a Ca^2+-sensitive dye (type Fluo-4, Molecular Probes Europe BV, Leiden, the Netherlands) in a fluorescent imaging plate reader (FLIPR, Molecular Devices, Sunnyvale, USA).
Complete medium: 50 ml HAMS F12 nutrient mixture (Gibco Invitrogen GmbH, Karlsruhe, Germany) with
10% by volume of FCS (foetal calf serum, Gibco Invitrogen GmbH, Karlsruhe, Germany, heat-inactivated);
2 mM L-glutamine (Sigma, Munich, Germany);
1% by weight of AA solution (antibiotic/antimyotic solution, PAA, Pasching, Austria) and 25 ng/ml NGF medium (2.5 S, Gibco Invitrogen GmbH, Karlsruhe, Germany)
Cell culture plate: Poly-D-lysine-coated, black 96-well plates having a clear base (96-well black/clear plate, BD Biosciences, Heidelberg, Germany) are additionally coated with laminin (Gibco Invitrogen GmbH, Karlsruhe, Germany), the laminin being diluted with PBS (Ca—Mg-free PBS, Gibco Invitrogen GmbH, Karlsruhe, Germany) to a concentration of 100 μg/ml. Aliquots having a laminin concentration of 100 μg/ml are removed and stored at −20° C. The aliquots are diluted with PBS in a ratio of 1:10 to 10 μg/ml of laminin and respectively 50 μL of the solution are pipetted into a recess in the cell culture plate. The cell culture plates are incubated for at least two hours at 37° C., the excess solution is removed by suction and the recesses are each washed twice with PBS. The coated cell culture plates are stored with excess PBS which is not removed until just before the feeding of the cells.
Preparation of the Cells:
The vertebral column is removed from decapitated rats and placed immediately into cold HBSS buffer (Hank's buffered saline solution, Gibco Invitrogen GmbH, Karlsruhe, Germany), i.e. buffer located in an ice bath, mixed with 1% by volume (per cent by volume) of an AA solution (antibiotic/antimyotic solution, PAA, Pasching, Austria). The vertebral column is cut longitudinally and removed together with fasciae from the vertebral canal. Subsequently, the dorsal root ganglia (DRG) are removed and again stored in cold HBSS buffer mixed with 1% by volume of an AA solution. The DRG, from which all blood remnants and spinal nerves have been removed, are transferred in each case to 500 μL of cold type 2 collagenase (PAA, Pasching, Austria) and incubated for 35 minutes at 37° C. After the addition of 2.5% by volume of trypsin (PAA, Pasching, Austria), incubation is continued for 10 minutes at 37° C. After complete incubation, the enzyme solution is carefully pipetted off and 500 μL of complete medium are added to each of the remaining DRG. The DRG are respectively suspended several times, drawn through cannulae No. 1, No. 12 and No. 16 using a syringe and transferred to a 50 ml Falcon tube which is filled up to 15 ml with complete medium. The contents of each Falcon tube are respectively filtered through a 70 μm Falcon filter element and centrifuged for 10 minutes at 1,200 rpm and RT. The resulting pellet is respectively taken up in 250 μL of complete medium and the cell count is determined.
The number of cells in the suspension is set to 3×10^5 per ml and 150 μL of this suspension are in each case introduced into a recess in the cell culture plates coated as described hereinbefore. In the incubator the plates are left for two to three days at 37° C., 5% by volume of CO2 and 95% relative humidity. […]

[6] = read-out: IC50 (human being), 45° C.: inhibition (as a percentage)

| Structure (SMILES) | Ki (human being) [nM] Cap: agonist / partial agonist / no effect [1] | Ki ([1]; capsaicin (Cap)) [nM] | inhibition at 10 µM [2] [%] | Ki (human being) NADA: agonist / partial agonist / no effect [3] | Ki [5] [nM] | Ki [3] [nM] | other results |
| --- | --- | --- | --- | --- | --- | --- | --- |
| CC(C(=O)NCc1cc(C(C)(C)C)nn1-c1cccc(Cl)c1)c1ccc2c(c1)CCN2S(C)(=O)=O (centres unmarked) [Example 10, N-((3-tert-butyl-1-(3-chlorophenyl)-1H-pyrazol-5-yl)methyl)-2-(1-(methylsulphonyl)indolin-5-yl)propanamide] | pAG | 75.4 | 42 | pAG | – | – | inhibition at 2 µM [4, 6]: 6% |
| CC(C)(C)c1cc(CNC(=O)Cc2ccc3c(c2)OCCO3)n(-c2ccc(Cl)cc2)n1 [Example 12, N-((3-tert-butyl-1-(4-chlorophenyl)-1H-pyrazol-5-yl)methyl)-2-(2,3-dihydrobenzo[b][1,4]dioxin-6-yl)acetamide] | – | 77.9 | – | – | 135 | – | inhibition at 2 µM ([3]; @ 2 μM, read-out: Ki (human being) NADA column: inhibition (as a percentage)): 58%; inhibition at 2 µM [4, 6]: 18% |
| CC(C(=O)NCc1cc(C(F)(F)F)nn1-c1cccc(Cl)c1)c1cccc2[nH]ncc12 (centres unmarked) [Example 27, N-((1-(3-chlorophenyl)-3-(trifluoromethyl)-1H-pyrazol-5-yl)methyl)-2-(1H-indazol-4-yl)propanamide] | – | 1.1 | 13 | – | 11.2 | 0.008 | IC50 [4]: 297 nM |
| CC(C(=O)NCc1cc(C(C)(C)C)nn1-c1cccc(Cl)c1)c1ccc2ocnc2c1 (centres unmarked) [Example 40, 2-(benzo[d]oxazol-5-yl)-N-((3-tert-butyl-1-(3-chlorophenyl)-1H-pyrazol-5-yl)methyl)propanamide] | – | 4.2 | – | – | 8.4 | 1.1 | – |
| CC(C(=O)NCc1cc(C(C)(C)C)nn1-c1cccc(Cl)c1)c1ccc2cc(O)ccc2c1 (centres unmarked) [Example 49, N-((3-tert-butyl-1-(3-chlorophenyl)-1H-pyrazol-5-yl)methyl)-2-(6-hydroxynaphthalen-2-yl)propanamide] | AG | – | – | AG | – | – | IC50 (human being) hVR1, pH: agonist / partial agonist / no effect [2]: AG; IC50 (human being), 45° C.: agonist / partial agonist / no effect [4]: AG |
| CC(C(=O)NCc1cc(C(F)(F)F)nn1-c1ccc(Cl)cc1)c1cccc2cnccc12 (centres unmarked) [Example 68, N-((1-(4-chlorophenyl)-3-(trifluoromethyl)-1H-pyrazol-5-yl)methyl)-2-(isoquinolin-5-yl)propanamide] | – | 0.3 | 33 | – | – | 0.04 | IC50 [4]: 245 nM |
| CC(C(=O)NCc1cc(C(C)(C)C)nn1-c1cccc(Cl)c1)c1ccc2cccnc2c1 (centres unmarked) [Example 71, N-((3-tert-butyl-1-(3-chlorophenyl)-1H-pyrazol-5-yl)methyl)-2-(quinolin-7-yl)propanamide] | – | – | – | – | – | 68.1 | inhibition at 10 µM ([1]; CHO-K1, @ 10 μM, capsaicin (Cap), read-out: Ki (human being) Cap column: inhibition (as a percentage)): 18%; IC50 [4]: 2710 nM |
| CC(C(=O)NCc1cc(C(C)(C)C)nn1-c1cccc(Cl)c1)c1ccc2nccnc2c1 (centres unmarked) [Example 77, N-((3-tert-butyl-1-(3-chlorophenyl)-1H-pyrazol-5-yl)methyl)-2-(quinoxalin-6-yl)propanamide] | – | 35.4 | 23 | – | 34.2 | – | inhibition at 10 µM ([4]; @ 10 μM, read-out: IC50 (human being), 45° C.: inhibition (as a percentage)): -17% |
| CC(C)(C)c1cc(CNC(=O)Nc2cccc3cnccc23)n(-c2cccc(Cl)c2)n1 [Example 109, 1-((3-tert-butyl-1-(3-chlorophenyl)-1H-pyrazol-5-yl)methyl)-3-(isoquinolin-5-yl)urea] | pAG | 0.2 | – | pAG | – | – | IC50 (human being) hVR1, pH: agonist / partial agonist / no effect [2]: pAG; IC50 (human being), 45° C.: agonist / partial agonist / no effect [4]: pAG |
| CC(C)(C)c1cc(CNC(=O)Nc2cccc3ncccc23)n(-c2cccc(Cl)c2)n1 [Example 111, 1-((3-tert-butyl-1-(3-chlorophenyl)-1H-pyrazol-5-yl)methyl)-3-(quinolin-5-yl)urea] | AG | – | – | AG | – | – | IC50 (human being) hVR1, pH: agonist / partial agonist / no effect [2]: AG; IC50 (human being), 45° C.: agonist / partial agonist / no effect [4]: AG |
| CC(C)(C)c1cc(CNC(=O)Nc2cncc3ccccc23)n(-c2cccc(Cl)c2)n1 [Example 112, 1-((3-tert-butyl-1-(3-chlorophenyl)-1H-pyrazol-5-yl)methyl)-3-(isoquinolin-4-yl)urea] | – | 7.3 | – | pAG | 18.2 | 6.4 | – |
| CC(C)(C)c1cc(CNC(=O)Nc2cnc3ccccc3c2)n(-c2cccc(Cl)c2)n1 [Example 113, 1-((3-tert-butyl-1-(3-chlorophenyl)-1H-pyrazol-5-yl)methyl)-3-(quinolin-3-yl)urea] | – | 70.7 | – | – | – | 33.3 | – |
